The values that follow come from paper PMC6430017, “Structural and chemical insights into the covalent-allosteric inhibition of the protein kinase Akt” (Chemical Science, 2019).

The target in data set [1] is T1, full-length Akt (Akt^wt) (Homo sapiens, UniProt P31749). The data set can be described thus: Kinetic characterization by time-dependent IC50 measurements. The class given is biochemical. As to conditions: from time-dependent IC50.
Experimental: (§1) The biochemical inhibitory activity (IC50) was determined with the HTRF KinEASE assay from Cisbio as
(§2) previously described.1 All reagents for HTRF experiments were purchased from Cisbio Bioassays,
(§3) France. The measurements were analyzed using the Quattro Software Suite for IC50-determination.
(§4) Time-dependent IC50-measurements were performed as described. Briefly, IC50 values were
(§5) determined for twelve different incubation times and afterwards plotted versus accordingly. Data was
(§6) analyzed according to literature procedure.2
Data set [2] deals with T1, full-length Akt (Akt^wt). The experiment in a line: HTRF KinEASE activity-based assay, IC50 determination. The class given is biochemical. In general terms: Time-resolved FRET reads energy transfer from a long-lived donor to a nearby acceptor.
Experimental: as §1, §2, §3, §4, §5, §6
For data set [3], the system named is ZR-75-1. The experiment in a line: Cell viability assay (CellTiter-Glo). It is filed as cell-based.
Experimental: Cell Culture and Viability Assay
(§7) analysis, cells were plated on day 0 into white 384-well cell culture plates (Greiner Bio-One) using a
(§8) Multidrop reagent dispenser (Thermo) at cell numbers that ensure linear and optimal luminescent
(§9) signal intensity (AN3-CA: 800 cells/well; BT-474: 400 cells/well; Dan-G: 400 cells/well; HPAF-II: 400
(§10) cells/well). Then the cells were incubated for 24 h in a humidified atmosphere at 37 °C/5 % CO2. The
(§11) cells were treated with inhibitors in serial dilutions ranging from 30 µM down to 0.1 nM using an Echo
(§12) 520 acoustic liquid handler (Labcyte Inc.). Cell viability was analysed on day 5 using the CellTiter-Glo
(§13) assay (Promega) as per manufacturer’s instructions. Luminescence signal was recorded by an EnVision
(§14) Multilabel 2104 Plate Reader (PerkinElmer) with 500 ms integration time. All data were normalized to
(§15) the plate positive control (30 µM staurosporine) and negative control (DMSO). Finally, the data was
(§16) processed with the Quattro Software Suite using a four parameter logistic model. As a quality control,
(§17) the Z’-factor was calculated from 16 positive and negative control values. Only assay results showing
(§18) a Z’-factor ≥ 0.5 were used for further analysis. All experimental points were measured in duplicates
(§19) for each plate and were replicated in at least three times.
In data set [4] the target is GRK6 (Homo sapiens, UniProt P43250). The data set can be described thus: SelectScreen Z'LYTE kinase profiling. The class given is biochemical. The note with it: ATP at apparent KM.
Experimental: (§20) protein kinases at a compound concentration of 1 µM. Measurements were performed in duplicates
(§21) and at the particular apparent ATP KM of each individual kinase employing the activity based Z’LYTE®
(§22) kinase assay of the SelectScreen® Kinase Profiling Services (ThermoFisher Scientific).
(§23) kinases at a compound concentration of 1 µM. Measurements were performed in duplicates and at
(§24) the particular apparent ATP KM of each individual kinase employing the activity based Z’LYTE® kinase
(§25) assay of the SelectScreen® Kinase Profiling Services (ThermoFisher Scientific).
The test system of data set [5] is T47D. The experiment in a line: Cell viability assay (CellTiter-Glo). It is filed as cell-based. As to conditions: Homo sapiens, 120 h; T47D (breast), day 5; read-out: Cell viability assay EC50. For orientation: In ATP-based viability assays light output follows the ATP content of the culture.
Experimental: Cell Culture and Viability Assay
as §7, §8, §9, §10, §11, §12, §13, §14, §15, §16, §17, §18, §19
Data set [6] has as its target RET (Homo sapiens, UniProt P07949). The data set can be described thus: SelectScreen Z'LYTE kinase profiling. The class given is biochemical. As to conditions: ATP at apparent KM.
Experimental: as §20, §21, §22, §23, §24, §25
Data set [7] concerns BT-474. The data set can be described thus: Cell viability assay (CellTiter-Glo). The note with it: Homo sapiens, 120 h; BT-474 (breast), day 5; read-out: Cell viability assay EC50. It is filed as cell-based.
Experimental: Cell Culture and Viability Assay
as §7, §8, §9, §10, §11, §12, §13, §14, §15, §16, §17, §18, §19
Data set [8] deals with MCF-7. The data set can be described thus: Cell viability assay (CellTiter-Glo). It is filed as cell-based. As to conditions: Homo sapiens, MCF7, 120 h; MCF-7 (breast), day 5; read-out: Cell viability assay EC50.
Experimental: Cell Culture and Viability Assay
as §7, §8, §9, §10, §11, §12, §13, §14, §15, §16, §17, §18, §19
The test system of data set [9] is KU-19-19. The data set can be described thus: Cell viability assay (CellTiter-Glo). It is filed as cell-based. The note with it: Homo sapiens, 120 h; KU-19-19 (bladder), day 5; read-out: Cell viability assay EC50.
Experimental: Cell Culture and Viability Assay
as §7, §8, §9, §10, §11, §12, §13, §14, §15, §16, §17, §18, §19
Data set [10] addresses AKT1 (PKB alpha) (Homo sapiens, UniProt P31749). The data set can be described thus: SelectScreen Z'LYTE kinase profiling. As to conditions: ATP at apparent KM. It is filed as biochemical.
Experimental: as §20, §21, §22, §23, §24, §25
The target of data set [11] is AKT3 (PKB gamma) (Homo sapiens, UniProt Q9Y243). The data set can be described thus: SelectScreen Z'LYTE kinase profiling. The class given is biochemical. As to conditions: ATP at apparent KM.
Experimental: as §20, §21, §22, §23, §24, §25
In data set [12] the test system is AN3CA. The data set can be described thus: Cell viability assay (CellTiter-Glo). The class given is cell-based. The note with it: Homo sapiens, AN3-CA, 120 h; AN3CA (endometrium), day 5; read-out: Cell viability assay EC50.
Experimental: Cell Culture and Viability Assay
as §7, §8, §9, §10, §11, §12, §13, §14, §15, §16, §17, §18, §19
Data set [13] concerns the target T2, Akt1 (Homo sapiens, UniProt P31749).
T2 construct: Purified full-length wtAkt1 was incubated with a 2-fold molar excess
The data set can be described thus: Intact protein mass spectrometry, covalent labeling. The class given is binding. The note with it: 10 µM protein, 100 µM inhibitor, 1 h, denaturing conditions.
Experimental: In order to provide an orthogonal proof for covalent bond formation, we co-incubated the covalent-allosteric inhibitors with the protein Akt1 and analyzed the samples by mass spectrometry (Fig. 2).
Mass spectra were recorded using denaturing conditions.
We used Akt1 for MS experiments and incubated 10 µM of the protein with 100 µM of the inhibitor in
a buffer for 1 h. We analyzed the samples by mass spectrometry using a Thermo Fisher Scientific
Ultimate 3000 HPLC system connected with a Thermo Fisher Scientific Velos Pro (2D ion trap).
A mass range of 700-2000 m/z was scanned
and raw data were deconvoluted and analyzed with ProMass.

The conditions of data set [14]: human, 3 µM.
Experimental: For this purpose, we used a microsomal stability assay that is a good predictor for phase I metabolic stability.[50]
Phase I metabolic stability assay
Metabolic stability under oxidative conditions was determined by LCMS-based measuring of
degradation of compounds at 3 µM in human and murine liver microsomes over 60 minutes at 37 °C
Calculating the compound half-life t1/2, the in vitro intrinsic clearance CLint is
In data set [15] the target is T3, PRKD1 (PKC mu) (Homo sapiens, UniProt Q15139).
T3 sequence (Q15139 1-912): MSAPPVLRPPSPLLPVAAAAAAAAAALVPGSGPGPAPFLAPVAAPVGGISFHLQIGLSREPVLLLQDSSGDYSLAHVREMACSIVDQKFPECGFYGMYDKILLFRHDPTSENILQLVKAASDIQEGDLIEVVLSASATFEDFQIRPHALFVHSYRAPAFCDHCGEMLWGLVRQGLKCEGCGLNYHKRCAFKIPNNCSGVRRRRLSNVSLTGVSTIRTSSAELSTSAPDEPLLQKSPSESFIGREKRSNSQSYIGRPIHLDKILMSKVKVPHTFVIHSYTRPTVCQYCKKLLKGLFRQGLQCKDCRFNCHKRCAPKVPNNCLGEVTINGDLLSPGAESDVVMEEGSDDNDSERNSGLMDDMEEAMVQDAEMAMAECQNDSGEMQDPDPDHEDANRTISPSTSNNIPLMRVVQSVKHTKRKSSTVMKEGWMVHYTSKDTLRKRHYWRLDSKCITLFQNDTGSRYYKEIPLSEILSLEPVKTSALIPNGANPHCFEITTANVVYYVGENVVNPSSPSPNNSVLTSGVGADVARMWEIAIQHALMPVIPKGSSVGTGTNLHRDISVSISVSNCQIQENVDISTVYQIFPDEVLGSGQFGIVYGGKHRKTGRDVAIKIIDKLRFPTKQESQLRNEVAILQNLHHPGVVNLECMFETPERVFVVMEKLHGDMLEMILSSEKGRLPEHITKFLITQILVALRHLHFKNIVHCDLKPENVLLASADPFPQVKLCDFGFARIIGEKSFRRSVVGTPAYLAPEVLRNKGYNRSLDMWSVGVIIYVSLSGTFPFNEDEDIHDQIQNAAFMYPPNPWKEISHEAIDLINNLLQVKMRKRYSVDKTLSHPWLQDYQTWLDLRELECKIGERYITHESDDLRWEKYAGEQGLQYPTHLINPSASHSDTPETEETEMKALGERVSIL
The experiment in a line: SelectScreen Z'LYTE kinase profiling. It is filed as biochemical. As to conditions: ATP at apparent KM.
Experimental: as §20, §21, §22, §23, §24, §25

RET, sequence (P07949 29-1114): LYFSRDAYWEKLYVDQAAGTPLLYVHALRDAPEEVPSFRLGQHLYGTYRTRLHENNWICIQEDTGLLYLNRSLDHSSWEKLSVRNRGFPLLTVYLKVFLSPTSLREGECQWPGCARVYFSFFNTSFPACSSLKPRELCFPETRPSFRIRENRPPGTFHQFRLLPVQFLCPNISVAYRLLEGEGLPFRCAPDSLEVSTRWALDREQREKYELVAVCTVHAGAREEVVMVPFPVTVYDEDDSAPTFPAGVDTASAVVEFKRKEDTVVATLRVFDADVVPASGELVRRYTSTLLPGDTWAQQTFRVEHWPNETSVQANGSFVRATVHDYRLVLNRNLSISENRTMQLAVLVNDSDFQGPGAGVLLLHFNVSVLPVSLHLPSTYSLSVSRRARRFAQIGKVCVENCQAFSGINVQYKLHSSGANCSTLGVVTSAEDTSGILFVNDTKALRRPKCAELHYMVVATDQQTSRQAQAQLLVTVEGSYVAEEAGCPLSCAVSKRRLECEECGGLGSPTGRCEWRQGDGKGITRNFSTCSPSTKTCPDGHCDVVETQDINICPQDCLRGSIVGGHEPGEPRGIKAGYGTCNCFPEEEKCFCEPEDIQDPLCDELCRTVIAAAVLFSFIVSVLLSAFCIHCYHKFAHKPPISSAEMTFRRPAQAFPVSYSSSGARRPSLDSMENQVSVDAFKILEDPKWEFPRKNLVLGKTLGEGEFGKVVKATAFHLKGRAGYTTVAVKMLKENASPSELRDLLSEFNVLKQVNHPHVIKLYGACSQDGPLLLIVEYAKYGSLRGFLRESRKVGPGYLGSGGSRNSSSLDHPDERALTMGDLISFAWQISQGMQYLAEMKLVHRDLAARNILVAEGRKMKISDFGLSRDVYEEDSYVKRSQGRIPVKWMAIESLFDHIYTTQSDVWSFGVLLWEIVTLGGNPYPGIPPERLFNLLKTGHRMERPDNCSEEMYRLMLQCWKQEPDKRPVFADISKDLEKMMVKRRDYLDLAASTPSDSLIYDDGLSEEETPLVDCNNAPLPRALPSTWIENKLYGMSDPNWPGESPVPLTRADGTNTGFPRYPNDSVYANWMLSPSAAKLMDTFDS
T1 sequence (P31749 whole entry): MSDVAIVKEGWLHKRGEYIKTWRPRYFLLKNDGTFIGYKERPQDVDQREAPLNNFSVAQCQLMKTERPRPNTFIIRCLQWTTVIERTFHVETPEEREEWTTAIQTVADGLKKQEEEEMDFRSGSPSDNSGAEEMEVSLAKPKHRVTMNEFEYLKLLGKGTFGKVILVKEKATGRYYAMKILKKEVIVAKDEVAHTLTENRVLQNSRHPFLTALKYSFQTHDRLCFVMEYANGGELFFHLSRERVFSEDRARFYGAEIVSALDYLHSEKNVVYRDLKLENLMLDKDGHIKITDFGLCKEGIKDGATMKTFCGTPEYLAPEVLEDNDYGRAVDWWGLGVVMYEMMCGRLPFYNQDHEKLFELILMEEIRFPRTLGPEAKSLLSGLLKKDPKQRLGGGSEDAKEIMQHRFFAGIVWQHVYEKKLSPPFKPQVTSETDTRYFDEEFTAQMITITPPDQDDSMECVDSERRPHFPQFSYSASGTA
GRK6, sequence (P43250 whole entry): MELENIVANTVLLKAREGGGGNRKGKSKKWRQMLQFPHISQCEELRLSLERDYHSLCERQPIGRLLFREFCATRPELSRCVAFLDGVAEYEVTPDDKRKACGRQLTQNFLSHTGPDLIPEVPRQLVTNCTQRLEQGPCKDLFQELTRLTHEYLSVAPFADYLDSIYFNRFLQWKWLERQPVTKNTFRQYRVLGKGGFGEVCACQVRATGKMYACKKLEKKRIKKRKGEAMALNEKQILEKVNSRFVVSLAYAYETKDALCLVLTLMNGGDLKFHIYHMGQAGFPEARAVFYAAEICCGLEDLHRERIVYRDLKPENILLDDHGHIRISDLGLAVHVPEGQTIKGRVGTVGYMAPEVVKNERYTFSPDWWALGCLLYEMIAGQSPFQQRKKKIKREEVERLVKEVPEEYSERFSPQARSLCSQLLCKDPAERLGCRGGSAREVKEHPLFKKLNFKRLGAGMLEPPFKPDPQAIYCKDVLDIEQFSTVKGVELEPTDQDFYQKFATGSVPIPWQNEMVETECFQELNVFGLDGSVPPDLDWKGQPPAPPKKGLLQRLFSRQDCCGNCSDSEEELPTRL
AKT3 (PKB gamma), sequence (Q9Y243 whole entry): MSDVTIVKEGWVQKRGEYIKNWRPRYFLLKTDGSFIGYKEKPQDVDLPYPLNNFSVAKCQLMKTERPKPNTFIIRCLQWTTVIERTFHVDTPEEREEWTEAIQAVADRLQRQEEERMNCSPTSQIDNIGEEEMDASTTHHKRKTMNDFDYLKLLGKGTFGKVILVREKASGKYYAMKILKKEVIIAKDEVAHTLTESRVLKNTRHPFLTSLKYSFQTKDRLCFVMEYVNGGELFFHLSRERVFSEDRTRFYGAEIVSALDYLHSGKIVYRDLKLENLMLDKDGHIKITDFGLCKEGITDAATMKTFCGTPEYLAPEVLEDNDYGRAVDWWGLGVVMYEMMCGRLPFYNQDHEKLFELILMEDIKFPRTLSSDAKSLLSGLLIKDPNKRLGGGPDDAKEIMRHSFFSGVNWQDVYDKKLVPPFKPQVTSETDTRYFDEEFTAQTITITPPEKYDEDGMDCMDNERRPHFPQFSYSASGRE
AKT1 (PKB alpha), sequence (P31749 whole entry): as the sequence (P31749 whole entry) above
T2 sequence (P31749 whole entry): as above

Usually kinact stands for the rate constant of inactivation at saturating inhibitor. What is called kinact/KI is the second-order rate constant of inactivation. In general, IC50 refers to the midpoint of a concentration-inhibition curve. Read a low IC50 as greater potency. In general, EC50 refers to the concentration giving half of the maximal effect. In general, inhibition refers to the change of the read-out against control, counted positive when it falls. Regarding `C=CC(=O)Nc1ccc2c(c1)n(C1CCN(Cc3ccc(-c4nc5cc[nH]c(=O)c5cc4-c4ccccc4)cc3)CC1)c(=O)n2C` [24b], the Ki in [1] is 0.0107 ± 0.0005 µM. In addition, in [1], the kinact is 0.00202 s⁻¹. Further, the inactivation efficiency (kinact/KI) in data set [1] was determined as 190000 ± 25000 M⁻¹ s⁻¹. Further, the “fold loss in inhibitory activity (IC50) compared to 1” value in [2] came out at 3 fold. Besides, the IC50 in data set [2] (HTRF KinEASE) stood at 0.003 ± 0.0003 µM. The EC50 stood at 0.002 µM in [3] (Homo sapiens, 120 h, ZR-75-1 (breast), day 5, read-out: Cell viability assay EC50); 0.011 ± 0.002 µM in data set [5]; 0.109 ± 0.016 µM in data set [7]; 0.032 ± 0.008 µM in data set [8]; 7.16 ± 2.11 µM in [9]; 0.23 ± 0.075 µM in data set [12]. The “fold higher inhibitory activity than borussertib” value in [3] (ZR-75-1 EC50) is given as 2 fold. The inhibition at 1 µM in data set [4] is 0%; in data set [6], 10%; in data set [10] it was 98%; in data set [11], 75%; in data set [15], 13%. In addition, the “labeling of Akt1 by mass spectrometry” value in data set [13] is “complete labeling”. For the same molecule, the “fold lower stability in microsomes” value in data set [14] came to 4 fold.
In the case of `C=CC(=O)Nc1cccc(C(=O)NC2CCN(Cc3ccc(-c4nc5cc[nH]c(=O)c5cc4-c4ccccc4)cc3)CC2)c1` [30b], the values for the inhibition at 1 µM in [4], in data set [6] and in data set [15] were 3%, 19% and 6%, respectively.
Turning to `C=CC(=O)Nc1cc(NC(=O)NC2CCN(Cc3ccc(-c4nc5cc[nH]c(=O)c5cc4-c4ccccc4)cc3)CC2)ccc1Cl` [compound 27], the inhibition at 1 µM in [6] was found to be 26%; in [15], 17%.
